These results are taken from patent US12116344B2, “Crystalline forms of a pharmaceutical compound” (Azafaros B.V., priority 2020, dated 2024).

For data set [1], the target named is T1, non-lysosomal glucosylcerebrosidase (GbA2) (Homo sapiens, UniProt Q9HCG7).
T1 sequence (Q9HCG7 1-927): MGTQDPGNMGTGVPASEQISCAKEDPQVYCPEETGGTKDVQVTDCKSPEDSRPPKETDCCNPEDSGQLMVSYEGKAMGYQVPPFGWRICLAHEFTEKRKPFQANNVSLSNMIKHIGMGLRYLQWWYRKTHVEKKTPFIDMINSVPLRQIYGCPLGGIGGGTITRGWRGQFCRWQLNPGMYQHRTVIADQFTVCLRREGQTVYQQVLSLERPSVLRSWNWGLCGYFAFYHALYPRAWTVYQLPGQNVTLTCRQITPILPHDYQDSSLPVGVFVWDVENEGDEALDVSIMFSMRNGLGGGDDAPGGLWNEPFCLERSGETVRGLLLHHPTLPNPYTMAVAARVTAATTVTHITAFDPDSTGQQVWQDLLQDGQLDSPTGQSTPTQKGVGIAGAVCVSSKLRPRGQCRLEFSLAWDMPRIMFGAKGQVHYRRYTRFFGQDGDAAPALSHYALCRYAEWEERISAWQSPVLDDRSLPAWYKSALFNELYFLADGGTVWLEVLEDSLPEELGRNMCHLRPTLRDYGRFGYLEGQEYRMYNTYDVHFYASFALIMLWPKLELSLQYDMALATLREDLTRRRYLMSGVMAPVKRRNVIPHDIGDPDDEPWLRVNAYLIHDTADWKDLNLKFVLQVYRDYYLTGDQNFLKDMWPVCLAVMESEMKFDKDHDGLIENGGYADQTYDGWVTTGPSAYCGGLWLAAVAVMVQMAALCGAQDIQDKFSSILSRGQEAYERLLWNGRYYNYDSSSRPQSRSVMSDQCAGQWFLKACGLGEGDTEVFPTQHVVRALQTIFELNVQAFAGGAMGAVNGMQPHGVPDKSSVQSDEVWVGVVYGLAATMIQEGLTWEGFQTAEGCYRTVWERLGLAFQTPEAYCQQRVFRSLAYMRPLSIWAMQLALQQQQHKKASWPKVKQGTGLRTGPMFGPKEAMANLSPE
As to conditions: stated in words only, no test described; cited from earlier work.

Data set [2] in a line: Stability of the test item in vehicle (acidified water). In kind it is physicochemical. As to conditions: for Stability in the vehicle: 0.01 to 2 mg/mL.
The target of data set [3] is T2, glucosylceramide synthase (GCS) (Homo sapiens, UniProt Q16739).
T2 sequence (Q16739 1-394): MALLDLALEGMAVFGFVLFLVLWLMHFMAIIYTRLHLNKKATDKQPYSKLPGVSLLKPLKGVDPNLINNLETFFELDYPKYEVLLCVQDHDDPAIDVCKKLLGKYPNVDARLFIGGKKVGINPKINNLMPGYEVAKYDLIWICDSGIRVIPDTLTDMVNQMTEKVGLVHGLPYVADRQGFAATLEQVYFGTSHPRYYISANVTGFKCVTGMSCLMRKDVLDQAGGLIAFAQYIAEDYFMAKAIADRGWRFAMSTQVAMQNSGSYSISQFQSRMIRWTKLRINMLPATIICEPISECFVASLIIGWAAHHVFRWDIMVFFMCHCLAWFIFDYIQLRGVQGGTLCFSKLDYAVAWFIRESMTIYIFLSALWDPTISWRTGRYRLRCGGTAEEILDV
As to conditions: stated in words only, no test described; cited from earlier work.

Molecules are shown by their SMILES.

Turning to `OC[C@H]1[C@@H](O)[C@H](O)[C@@H](O)CN1CCCCCOCc1ccc(-c2ccccc2)c(F)c1` [AZ-3102], the “Potency as inhibitor of GbA2” value in data set [1] is reported as “highly potent (nM)”. The entries for the “Stability in the vehicle” value in data set [2] (freezer (≤−15° C.)), in data set [2] (refrigerated (2-8° C.)) and in data set [2] (room temperature protected from light) were “at least 3 weeks”, “at least 8 days” and “at least 24 hours”, respectively. Besides, the Stability in vehicle entry in data set [2] (under nitrogen at room temperature protected from light) is on record as “light for at least 24 h, stored under nitrogen”; in data set [2] (under nitrogen frozen in a freezer (≤−15° C.)), “for at least 21 days (3 weeks)”. For the same molecule, the “Potency as inhibitor of GCS” value in data set [3] is on record as “highly potent (nM)”.
